Results published in US20250215029A1 (Recludix Pharma, Inc., priority 2022, published 2025).

Experiments:
[1] = target: T1, Recombinant STAT3 protein (STAT3 (G127-I722)) (Homo sapiens, UniProt P40763); assay: STAT3 Fluorescence Polarization (FP) Assay; type: binding; conditions: STAT3 (G127-I722) 25 nM, probe 5-FAM-GpYLPQTV-NH2 2 nM, 45-minute incubation; read-out: STAT3 (FP assay IC50 class)
T1 construct: Recombinant STAT3 protein (STAT3 (G127-I722))
Summary of the method: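 Displacement of a 2 nM 5-FAM-labelled pY peptide (GpYLPQTV) from 25 nM recombinant STAT3 (G127-I722) was monitored by fluorescence polarization. Incubation lasted 45 min at room temperature in pH 7.4 HEPES buffer containing 1% DMSO.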

[2] = target: T2, Recombinant STAT6 protein (STAT6 (W123-T658)) (Homo sapiens, UniProt P42226); assay: STAT6 Fluorescence Polarization (FP) Assay; type: binding; conditions: STAT6 (W123-T658) 250 nM, probe 5-FAM-Ap[…]-NH2 2 nM, 45-minute incubation; read-out: STAT6 (FP assay IC50 class)
T2 construct: Recombinant STAT6 protein (STAT6 (W123-T658))
T2 sequence (P42226 123-658): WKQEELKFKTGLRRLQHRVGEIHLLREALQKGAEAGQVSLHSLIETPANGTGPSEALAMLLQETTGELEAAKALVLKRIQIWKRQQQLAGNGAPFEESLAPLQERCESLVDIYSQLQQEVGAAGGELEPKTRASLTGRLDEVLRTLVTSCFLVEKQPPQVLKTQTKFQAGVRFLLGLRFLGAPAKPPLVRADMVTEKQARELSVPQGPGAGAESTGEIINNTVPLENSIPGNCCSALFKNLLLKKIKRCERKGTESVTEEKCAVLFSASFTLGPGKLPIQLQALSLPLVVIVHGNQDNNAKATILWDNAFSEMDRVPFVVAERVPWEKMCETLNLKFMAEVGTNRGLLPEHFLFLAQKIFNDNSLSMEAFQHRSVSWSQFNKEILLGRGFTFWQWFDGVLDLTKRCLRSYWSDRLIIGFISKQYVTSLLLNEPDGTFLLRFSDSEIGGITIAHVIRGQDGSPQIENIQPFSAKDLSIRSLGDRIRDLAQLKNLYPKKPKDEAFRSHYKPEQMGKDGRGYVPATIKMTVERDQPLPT
Summary of the method: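 Serially diluted compounds received a premix of STAT6 (W123-T658, 250 nM) and 5-FAM peptide probe (2 nM) in pH 7.4 HEPES buffer containing DTT and Tween 20. Following 45 min at room temperature, FP was recorded. IC50s were fitted by nonlinear regression; values are binned A (≤300 nM), B (>300-3000 nM), C (>3-30 μM), D (>30 μM).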

T1 sequence (P40763 127-722): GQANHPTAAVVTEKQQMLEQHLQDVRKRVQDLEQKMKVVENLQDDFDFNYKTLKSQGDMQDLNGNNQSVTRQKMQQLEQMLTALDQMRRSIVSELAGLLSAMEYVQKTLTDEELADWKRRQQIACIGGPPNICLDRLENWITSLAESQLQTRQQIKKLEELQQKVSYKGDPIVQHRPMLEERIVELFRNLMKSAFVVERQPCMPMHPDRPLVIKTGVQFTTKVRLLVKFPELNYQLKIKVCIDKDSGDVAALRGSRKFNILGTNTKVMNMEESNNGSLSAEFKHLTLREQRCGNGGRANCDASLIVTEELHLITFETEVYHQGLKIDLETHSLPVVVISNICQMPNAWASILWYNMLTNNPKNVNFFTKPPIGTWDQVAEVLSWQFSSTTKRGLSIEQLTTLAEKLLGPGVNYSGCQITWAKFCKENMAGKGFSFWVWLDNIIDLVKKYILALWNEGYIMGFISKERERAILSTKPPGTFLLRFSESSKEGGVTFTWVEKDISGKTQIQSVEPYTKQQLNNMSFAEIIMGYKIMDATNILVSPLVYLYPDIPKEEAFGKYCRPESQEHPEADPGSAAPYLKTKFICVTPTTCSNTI

In the case of `O=C(N[C@H]1CCCC[C@H]2CC[C@@H](C(=O)NCc3ccc4nccnc4c3)N2C1=O)c1cc2cc(C(F)(F)P(=O)(O)O)ccc2s1` [Compound 825, (difluoro(2-(((3S,6S,10aS)-5-oxo-3-((quinoxalin-6-ylmethyl)carbamoyl)decahydropyrrolo [1,2-a]azocin-6-yl)carbamoyl)benzo [b]thiophen-5-yl)methyl) phosphonic acid], the IC50 [1] is reported as 0.1 to 1 µM and the IC50 [2] is reported as 0.3 to 3 µM.

`COc1cccnc1C1CN(C(=O)[C@@H]2CC[C@@H]3CCC[C@H](NC(=O)c4cc5cc(C(F)(F)P(=O)(O)O)ccc5s4)C(=O)N32)C1` [Compound 826, (difluoro(2-(((3S,6S,9aS)-3-(3-(3-methoxypyridin-2-yl)azetidine-1-carbonyl)-5-oxooctahydro-1H-pyrrolo[1,2-a]azepin-6-yl)carbamoyl)benzo [b]thiophen-5-yl)methyl) phosphonic acid] was tested, and the IC50 [1] was 0.1 to 1 µM and the IC50 [2] was 0.3 to 3 µM.

In the case of `CN=S(C)(=O)CC1(OC)CN(C(=O)[C@@H]2CC[C@@H]3CCC[C@H](NC(=O)c4cc5cc(C(F)(F)P(=O)(O)O)ccc5s4)C(=O)N32)C1` (stereo partly drawn) [Compound 827, ((2-(((3S,6S,9aS)-3-(3-((N,S-dimethyl-sulfonimidoyl)methyl)-3-methoxyazetidine-1-carbonyl)-5-oxooctahydro-1H-pyrrolo[1,2-a]azepin-6-yl)carbamoyl)benzo [b]thiophen-5-yl)difluoromethyl) phosphonic acid], the IC50 [1] is reported as 0.1 to 1 µM and the IC50 [2] is reported as 3 to 30 µM.

In the case of `O=C(N[C@H]1CCCC[C@H]2CC[C@@H](C(=O)NCc3ccn4ccnc4c3)N2C1=O)c1cc2cc(C(F)(F)P(=O)(O)O)ccc2s1` [Compound 828], the IC50 [1] is reported as less than 0.1 µM and the IC50 [2] is reported as 0.3 to 3 µM.

`O=C(/C=C/c1ccc(C(F)(F)P(=O)(O)O)cc1)N[C@H]1CCCC[C@H]2CC[C@@H](C(=O)N3Cc4cnn(-c5ccccc5)c4C3)N2C1=O` [Compound 829, (difluoro(4-((E)-3-oxo-3-(((3S,6S,10aS)-5-oxo-3-(1-phenyl-1,4,5,6-tetrahydropyrrolo[3,4-c]pyrazole-5-carbonyl)decahydropyrrolo[1,2-a]azocin-6-yl)amino)prop-1-en-1-yl)phenyl)methyl) phosphonic acid] gave an IC50 [1] of 1 to 10 µM and an IC50 [2] of 0.3 to 3 µM.

`Cn1ccc([C@@H]2CN(C(=O)[C@@H]3CC[C@@H]4CCC[C@H](NC(=O)c5cc6cc([C@@H](F)P(=O)(O)O)ccc6s5)C(=O)N43)C3(CC3)C2)cc1=O` [Compound 831, ((S)-fluoro(2-(((3S,6S,9aS)-3-((R)-6-(1-methyl-2-oxo-1,2-dihydropyridin-4-yl)-4-azaspiro[2.4]heptane-4-carbonyl)-5-oxooctahydro-1H-pyrrolo[1,2-a]azepin-6-yl)carbamoyl)benzo [b]thiophen-5-yl)methyl) phosphonic acid] gave an IC50 [1] of 1 to 10 µM and an IC50 [2] of 0.3 to 3 µM.

`C[C@H]1C[C@H]2CC[C@@H](C(=O)N3C[C@@H](c4cccnc4)CC34CC4)N2C(=O)[C@@H](NC(=O)c2cc3cc([C@H](F)P(=O)(O)O)ccc3s2)C1` [Compound 834, ((R)-fluoro(2-(((3S,6S,8R,9aR)-8-methyl-5-oxo-3-((R)-6-(pyridin-3-yl)-4-azaspiro[2.4]heptane-4-carbonyl)octahydro-1H-pyrrolo[1,2-a]azepin-6-yl)carbamoyl)benzo [b]thiophen-5-yl)methyl) phosphonic acid] gave an IC50 [1] of 0.1 to 1 µM and an IC50 [2] of no more than 0.3 µM.

With `C[C@H]1C[C@H]2CC[C@@H](C(=O)N3C[C@H](c4ccccc4)[C@@H](C#N)C34CC4)N2C(=O)[C@@H](NC(=O)c2cc3cc([C@H](F)P(=O)(O)O)ccc3s2)C1` [Compound 849, ((R)-(2-(((3S,6S,8R,9aR)-3-((6S,7R)-7-cyano-6-phenyl-4-azaspiro[2.4]heptane-4-carbonyl)-8-methyl-5-oxooctahydro-1H-pyrrolo[1,2-a]azepin-6-yl)carbamoyl)benzo [b]thiophen-5-yl)fluoromethyl) phosphonic acid] the IC50 [1] was 1 to 10 µM and the IC50 [2] was no more than 0.3 µM.

Molecule `O=C(N[C@H]1CCC[C@H]2CC[C@@H](C(=O)N3CC(c4cnccc4N4CCCC4=O)C3)N2C1=O)c1cc2cc(CP(=O)(O)O)ccc2s1` [Compound 850, ((2-(((3S,6S,9aS)-5-oxo-3-(3-(4-(2-oxopyrrolidin-1-yl)pyridin-3-yl)azetidine-1-carbonyl)octahydro-1H-pyrrolo[1,2-a]azepin-6-yl)carbamoyl)benzo [b]thiophen-5-yl)methyl) phosphonic acid] has an IC50 [1] of 1 to 10 µM and an IC50 [2] of 3 to 30 µM.

Work on `CN1CCN(c2ccncc2C2CN(C(=O)[C@@H]3CC[C@@H]4CCC[C@H](NC(=O)c5cc6cc([C@@H](F)P(=O)(O)O)ccc6s5)C(=O)N43)C2)C1=O` [Compound 851, ((S)-fluoro(2-(((3S,6S,9aS)-3-(3-(4-(3-methyl-2-oxoimidazolidin-1-yl)pyridin-3-yl)azetidine-1-carbonyl)-5-oxooctahydro-1H-pyrrolo[1,2-a]azepin-6-yl)carbamoyl)benzo [b]thiophen-5-yl)methyl) phosphonic acid] yielded an IC50 [1] of 0.1 to 1 µM and an IC50 [2] of 3 to 30 µM.

`O=C(N[C@H]1CCC[C@H]2CC[C@@H](C(=O)N3CC(c4cnccc4N4CC(OC(F)F)C4)C3)N2C1=O)c1cc2cc([C@@H](F)P(=O)(O)O)ccc2s1` [Compound 852, ((S)-(2-(((3S,6S,9aS)-3-(3-(4-(3-(difluoromethoxy)azetidin-1-yl)pyridin-3-yl)azetidine-1-carbonyl)-5-oxooctahydro-1H-pyrrolo[1,2-a]azepin-6-yl)carbamoyl)benzo [b]thiophen-5-yl)fluoromethyl) phosphonic acid] was tested, and the IC50 [1] was less than 0.1 µM and the IC50 [2] was 0.3 to 3 µM.

`O=C(N[C@H]1CCC[C@H]2CC[C@@H](C(=O)N3CC(c4cnccc4-n4ccnc4)C3)N2C1=O)c1cc2cc([C@@H](F)P(=O)(O)O)ccc2s1` [Compound 853, ((S)-(2-(((3S,6S,9aS)-3-(3-(4-(1H-imidazol-1-yl)pyridin-3-yl)azetidine-1-carbonyl)-5-oxooctahydro-1H-pyrrolo[1,2-a]azepin-6-yl)carbamoyl)benzo [b]thiophen-5-yl)fluoromethyl) phosphonic acid] gave an IC50 [1] of 1 to 10 µM and an IC50 [2] of 3 to 30 µM.

Work on `COCCN(C)c1ccncc1C1CN(C(=O)[C@@H]2CC[C@@H]3CCC[C@H](NC(=O)c4cc5cc([C@@H](F)P(=O)(O)O)ccc5s4)C(=O)N32)C1` [Compound 855, ((S)-fluoro(2-(((3S,6S,9aS)-3-(3-(4-((2-methoxyethyl) (methyl)amino)pyridin-3-yl)azetidine-1-carbonyl)-5-oxooctahydro-1H-pyrrolo[1,2-a]azepin-6-yl)carbamoyl)benzo [b]thiophen-5-yl)methyl) phosphonic acid] yielded an IC50 [1] of less than 0.1 µM and an IC50 [2] of 3 to 30 µM.

In the case of `COCC1CN(c2ccncc2C2CN(C(=O)[C@@H]3CC[C@@H]4CCC[C@H](NC(=O)c5cc6cc([C@@H](F)P(=O)(O)O)ccc6s5)C(=O)N43)C2)C1` [Compound 856, ((S)-fluoro(2-(((3S,6S,9aS)-3-(3-(4-(3-(methoxymethyl)azetidin-1-yl)pyridin-3-yl)azetidine-1-carbonyl)-5-oxooctahydro-1H-pyrrolo[1,2-a]azepin-6-yl)carbamoyl)benzo [b]thiophen-5-yl)methyl) phosphonic acid], the IC50 [1] is reported as less than 0.1 µM and the IC50 [2] is reported as 0.3 to 3 µM.
